Data: patent US10785975B2, “Water and feed antimicrobial preservative” (priority 2009, dated 2020)
Where two headings read alike, the source gives them in different places.

What was measured:
Salmonella typhimurium [1] = assay: Example 2: effect of carbon chain length of individual organic acids on antimicrobial activity in water; format: cell-based; parameters: MIC at 4 HR / MIC at 24 FIR: unit not given here; settings: for MIC at 4 HR / MIC at 24 FIR: Minimum Inhibitory Concentration of Organic Acids against Salmonella, by linear regression; for MIC at 24 FIR: 24 hours; for killing at […] / killing at 0.05 % / killing at 0.075 % / killing at 0.1 %: Salmonella enterica, TYPHIMURIUM
Experimental: 100 ul of a nutrient broth culture of Salmonella typhimurium was added to each dilution tube. After addition, tubes were vortexed and allowed to stand. At 4 and 24 hours after addition of the inoculum, 100 ul of the solution was plated on agar (triplicate plates). Plates were incubated at 37° C. for 24 hours prior to enumeration. The minimum effective dose of each acid was be determined by linear regression: […]

Salmonella typhimurium [2] = assay: Example 1: effect of pH buffering of acetic and propionic acid on antimicrobial activity in water; format: cell-based
Experimental: Propionic and acetic acids were buffered with ammonium hydroxide to pHs ranging from 1 to 7. Acid contents of the buffered solutions were determined by a weight to weight ratio calculation to obtain the same acid content in the test solutions. […] The pHs of the deionized water solutions were recorded and any problems with solubility noted.
100 ul of a nutrient broth culture of Salmonella typhimurium was added to each dilution tube. After addition, tubes were vortexed and allowed to stand. At 4 and 24 hours after addition of the inoculum, 100 ul of the solution was plated on Standard Plate agar (triplicate plates). Plates were incubated at 37° C. for 24 hours prior to enumeration. The minimum effective dose of each acid was determined by linear regression.

[3] = Product Conc. 0.025 (% acid solution in water), 4 hr
[4] = Product Conc. 0.025 (% acid solution in water), 24 hr
[5] = Product Conc. 0.05 (% acid solution in water), 4 hr
[6] = Product Conc. 0.05 (% acid solution in water), 24 hr
[7] = Product Conc. 0.075 (% acid solution in water), 4 hr
[8] = Product Conc. 0.075 (% acid solution in water), 24 hr
[9] = Product Conc. 0.1 (% acid solution in water), 4 hr
[10] = Product Conc. 0.1 (% acid solution in water), 24 hr
[11] = Product Conc. 0.025 (% acid solution in water), 4 hr, read-out: Salmonella at time Interval 4 hr % reduction
[12] = Product Conc. 0.025 (% acid solution in water), 24 hr, read-out: Salmonella at time Interval 24 hr % reduction
[13] = Product Conc. 0.05 (% acid solution in water), 4 hr, read-out: Salmonella at time Interval 4 hr % reduction
[14] = Product Conc. 0.05 (% acid solution in water), 24 hr, read-out: Salmonella at time Interval 24 hr % reduction
[15] = Product Conc. 0.075 (% acid solution in water), 4 hr, read-out: Salmonella at time Interval 4 hr % reduction
[16] = Product Conc. 0.075 (% acid solution in water), 24 hr, read-out: Salmonella at time Interval 24 hr % reduction
[17] = Product Conc. 0.1 (% acid solution in water), 4 hr, read-out: Salmonella at time Interval 4 hr % reduction
[18] = Product Conc. 0.1 (% acid solution in water), 24 hr, read-out: Salmonella at time Interval 24 hr % reduction
[19] = 4 h, read-out: Salmonella at time Interval 4 hr % reduction
[20] = 24 h, read-out: Salmonella at time Interval 24 hr % reduction
[21] = Product Conc. 0.025 (% acid solution in water)
[22] = Product Conc. 0.05 (% acid solution in water)
[23] = Product Conc. 0.075 (% acid solution in water)
[24] = Product Conc. 0.1 (% acid solution in water)

Compound | MIC at 4 HR (Salmonella typhimurium [1]; 4 hr) | MIC at 24 FIR (Salmonella typhimurium [1]) | Salmonella at time Interval 4 hr cfu/g (Salmonella typhimurium [1]; [3]) [cfu/g] | Salmonella at time Interval 24 hr cfu/g (Salmonella typhimurium [1]; [4]) [cfu/g] | Salmonella at time Interval 4 hr cfu/g (Salmonella typhimurium [1]; [5]) [cfu/g] | Salmonella at time Interval 24 hr cfu/g (Salmonella typhimurium [1]; [6]) [cfu/g] | Salmonella at time Interval 4 hr cfu/g (Salmonella typhimurium [1]; [7]) [cfu/g] | Salmonella at time Interval 24 hr cfu/g (Salmonella typhimurium [1]; [8]) [cfu/g] | Salmonella at time Interval 4 hr cfu/g (Salmonella typhimurium [1]; [9]) [cfu/g] | Salmonella at time Interval 24 hr cfu/g (Salmonella typhimurium [1]; [10]) [cfu/g] | killing at […] (Salmonella typhimurium [1]; [11]) [%] | killing at […] (Salmonella typhimurium [1]; [12]) [%] | killing at 0.05 % (Salmonella typhimurium [1]; [13]) [%] | killing at 0.05 % (Salmonella typhimurium [1]; [14]) [%] | killing at 0.075 % (Salmonella typhimurium [1]; [15]) [%] | killing at 0.075 % (Salmonella typhimurium [1]; [16]) [%] | killing at 0.1 % (Salmonella typhimurium [1]; [17]) [%] | killing at 0.1 % (Salmonella typhimurium [1]; [18]) [%] | also measured
CCCCCCCC(=O)O [Caprylic acid/KOH, Caprylic acid] | 0.109 | 0.090 | 1567 | 1400 | 1333 | 797 | 1100 | 77 | 0 | 0 | 2 | 18 | 17 | 53 | 31 | 95 | 100 | 100 | –
CCCCCC(=O)O [Caproic acid] | 0.103 | 0.063 | 1267 | 30 | 1433 | 7 | 523 | 0 | 27 | 0 | – | – | – | – | – | – | – | – | killing at 0.05 % (Salmonella typhimurium [1]; [19]): 10%; killing at 0.075 % (Salmonella typhimurium [1]; [19]): 67%; killing at 0.1 % (Salmonella typhimurium [1]; [19]): 98%; killing at […] (Salmonella typhimurium [1]; [19]): 21%; killing at 0.05 % (Salmonella typhimurium [1]; [20]): 100%; killing at 0.075 % (Salmonella typhimurium [1]; [20]): 100%; killing at 0.1 % (Salmonella typhimurium [1]; [20]): 100%; killing at […] (Salmonella typhimurium [1]; [20]): 98%
CCCCC(=O)O [Valeric acid] | 0.174 | 0.070 | 1233 | 533 | 1267 | 73 | 990 | 37 | 657 | 17 | 23 | 69 | 21 | 96 | 38 | 98 | 59 | 99 | –
CCCCCCCCCCCC(=O)O [Lauric acid/KOH, Lauric acid] | 0.072 | <0.025 | 670 | 20 | 0 | 0 | 0 | 0 | 0 | 0 | 58 | 99 | 100 | 100 | 100 | 100 | 100 | 100 | –
CCCCCCCCC(=O)O [Pelargonic acid/KOH, Pelargonic acid] | – | – | 7 | 0 | 0 | 0 | 0 | 0 | 0 | 0 | 100 | 100 | 100 | 100 | 100 | 100 | 100 | 100 | –
CCCCCCC(=O)O [Oenanthic acid] | 0.075 | 0.063 | 1103 | 10 | 0 | 0 | 0 | 0 | 0 | 0 | – | – | – | – | – | – | – | – | Salmonella at time Interval 4 hr % reduction (Salmonella typhimurium [1]; [3]): 31%; Salmonella at time Interval 24 hr % reduction (Salmonella typhimurium [1]; [4]): 99%; Salmonella at time Interval 4 hr % reduction (Salmonella typhimurium [1]; [5]): 100%; Salmonella at time Interval 24 hr % reduction (Salmonella typhimurium [1]; [6]): 100%; Salmonella at time Interval 4 hr % reduction (Salmonella typhimurium [1]; [7]): 100%; Salmonella at time Interval 24 hr % reduction (Salmonella typhimurium [1]; [8]): 100%; Salmonella at time Interval 4 hr % reduction (Salmonella typhimurium [1]; [9]): 100%; Salmonella at time Interval 24 hr % reduction (Salmonella typhimurium [1]; [10]): 100%
CCC(=O)O [Propionic pH 7, Propionic acid] | – | – | – | – | – | – | – | – | – | – | – | – | – | – | – | – | – | – | Salmonella at time Interval 4 hr % reduction (Salmonella typhimurium [2]; [21]): 0%; Salmonella at time Interval 4 hr cfu/g (Salmonella typhimurium [2]; [21]): >1505 cfu/g; Salmonella at time Interval 24 hr % reduction (Salmonella typhimurium [2]; [21]): 0%; Salmonella at time Interval 24 hr cfu/g (Salmonella typhimurium [2]; [21]): 1667 cfu/g; Salmonella at time Interval 4 hr % reduction (Salmonella typhimurium [2]; [22]): 0%; Salmonella at time Interval 4 hr cfu/g (Salmonella typhimurium [2]; [22]): 1700 cfu/g; Salmonella at time Interval 24 hr % reduction (Salmonella typhimurium [2]; [22]): 0%; Salmonella at time Interval 24 hr cfu/g (Salmonella typhimurium [2]; [22]): 1367 cfu/g; Salmonella at time Interval 4 hr % reduction (Salmonella typhimurium [2]; [23]): 0%; Salmonella at time Interval 4 hr cfu/g (Salmonella typhimurium [2]; [23]): >1505 cfu/g; Salmonella at time Interval 24 hr % reduction (Salmonella typhimurium [2]; [23]): 0%; Salmonella at time Interval 24 hr cfu/g (Salmonella typhimurium [2]; [23]): 1700 cfu/g; Salmonella at time Interval 4 hr % reduction (Salmonella typhimurium [2]; [24]): 0%; Salmonella at time Interval 4 hr cfu/g (Salmonella typhimurium [2]; [24]): 1600 cfu/g; Salmonella at time Interval 24 hr % reduction (Salmonella typhimurium [2]; [24]): 0%; Salmonella at time Interval 24 hr cfu/g (Salmonella typhimurium [2]; [24]): 1367 cfu/g
